# Measurements published in article PMC4777262 (Pharmacology Research & Perspectives, 2016).
# What was measured:
# IMPDH2 = IMPDH2 (Homo sapiens, UniProt P12268); assay: spectrophotometric NADH production at […] nm; assay type: biochemical
# IMPDH1 = IMPDH1 (Homo sapiens, UniProt P20839); assay: spectrophotometric NADH production at […] nm; assay type: biochemical
# IMPDH1, sequence (P20839 2-514): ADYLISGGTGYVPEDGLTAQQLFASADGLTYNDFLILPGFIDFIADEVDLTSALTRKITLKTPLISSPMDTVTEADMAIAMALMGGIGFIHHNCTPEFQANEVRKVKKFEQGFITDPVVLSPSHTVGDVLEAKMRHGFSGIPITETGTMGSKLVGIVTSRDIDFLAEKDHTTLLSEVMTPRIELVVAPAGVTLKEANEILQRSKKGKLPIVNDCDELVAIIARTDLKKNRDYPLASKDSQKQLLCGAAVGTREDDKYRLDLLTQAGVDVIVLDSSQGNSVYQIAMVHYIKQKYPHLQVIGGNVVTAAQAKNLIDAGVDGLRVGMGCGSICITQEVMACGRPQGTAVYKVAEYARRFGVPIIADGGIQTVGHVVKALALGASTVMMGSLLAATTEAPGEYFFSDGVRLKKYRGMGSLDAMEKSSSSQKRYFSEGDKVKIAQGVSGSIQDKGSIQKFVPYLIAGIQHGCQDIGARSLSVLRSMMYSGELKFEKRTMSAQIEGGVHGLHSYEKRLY
# IMPDH2, sequence (P12268 2-514): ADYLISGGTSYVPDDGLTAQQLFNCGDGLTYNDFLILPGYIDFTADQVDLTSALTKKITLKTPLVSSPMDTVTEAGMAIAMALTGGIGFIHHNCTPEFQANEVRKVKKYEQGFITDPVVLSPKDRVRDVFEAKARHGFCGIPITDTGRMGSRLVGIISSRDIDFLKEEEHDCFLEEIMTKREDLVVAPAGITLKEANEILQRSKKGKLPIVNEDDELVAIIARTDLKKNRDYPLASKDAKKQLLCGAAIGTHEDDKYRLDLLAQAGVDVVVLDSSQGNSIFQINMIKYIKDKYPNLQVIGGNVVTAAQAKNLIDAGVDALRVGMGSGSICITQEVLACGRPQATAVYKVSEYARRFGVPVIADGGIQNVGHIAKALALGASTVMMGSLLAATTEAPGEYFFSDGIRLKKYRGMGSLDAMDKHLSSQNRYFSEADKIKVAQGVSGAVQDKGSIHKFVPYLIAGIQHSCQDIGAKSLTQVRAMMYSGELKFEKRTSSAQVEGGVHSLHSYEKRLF
SMILES,IC50 (IMPDH2) [nM],IC50 (IMPDH1) [nM]
NC(=O)c1ncn([C@@H]2O[C@H](COP(=O)(O)O)[C@@H](O)[C@H]2O)c1O [FF‐10501RMP],31.8 ± 5.6,29 ± 10.3
"COc1c(C)c2c(c(O)c1C/C=C(\C)CCC(=O)O)C(=O)OC2 [Mycophenolic acid, reference compound]",,26.4 ± 1.5
